Data taken from patent US11220504B2, “Pyrrolo[3,2-d] pyrimidine derivatives for the treatment of viral infections and other diseases” (JANSSEN SCIENCES IRELAND UNLIMITED COMPANY, priority 2012, dated 2022).

Assays:
human TLR7 = molecular target: T1, human TLR7 (Homo sapiens, UniProt Q9NYK1); assay: TLR7 cellular reporter assay (HEK293, NFκB-luc); type: cell-based; conditions: HEK293 cells transfected with CMV-TLR7 and NFκB-luc, 6 hours incubation; lowest effective concentration
T1 construct: expressed in transfected cells; host or cells: HEK293 cells, transient transfection with CMV-TLR7 plasmid and NFκB-luc plasmid
T1 sequence (Q9NYK1 27-1049): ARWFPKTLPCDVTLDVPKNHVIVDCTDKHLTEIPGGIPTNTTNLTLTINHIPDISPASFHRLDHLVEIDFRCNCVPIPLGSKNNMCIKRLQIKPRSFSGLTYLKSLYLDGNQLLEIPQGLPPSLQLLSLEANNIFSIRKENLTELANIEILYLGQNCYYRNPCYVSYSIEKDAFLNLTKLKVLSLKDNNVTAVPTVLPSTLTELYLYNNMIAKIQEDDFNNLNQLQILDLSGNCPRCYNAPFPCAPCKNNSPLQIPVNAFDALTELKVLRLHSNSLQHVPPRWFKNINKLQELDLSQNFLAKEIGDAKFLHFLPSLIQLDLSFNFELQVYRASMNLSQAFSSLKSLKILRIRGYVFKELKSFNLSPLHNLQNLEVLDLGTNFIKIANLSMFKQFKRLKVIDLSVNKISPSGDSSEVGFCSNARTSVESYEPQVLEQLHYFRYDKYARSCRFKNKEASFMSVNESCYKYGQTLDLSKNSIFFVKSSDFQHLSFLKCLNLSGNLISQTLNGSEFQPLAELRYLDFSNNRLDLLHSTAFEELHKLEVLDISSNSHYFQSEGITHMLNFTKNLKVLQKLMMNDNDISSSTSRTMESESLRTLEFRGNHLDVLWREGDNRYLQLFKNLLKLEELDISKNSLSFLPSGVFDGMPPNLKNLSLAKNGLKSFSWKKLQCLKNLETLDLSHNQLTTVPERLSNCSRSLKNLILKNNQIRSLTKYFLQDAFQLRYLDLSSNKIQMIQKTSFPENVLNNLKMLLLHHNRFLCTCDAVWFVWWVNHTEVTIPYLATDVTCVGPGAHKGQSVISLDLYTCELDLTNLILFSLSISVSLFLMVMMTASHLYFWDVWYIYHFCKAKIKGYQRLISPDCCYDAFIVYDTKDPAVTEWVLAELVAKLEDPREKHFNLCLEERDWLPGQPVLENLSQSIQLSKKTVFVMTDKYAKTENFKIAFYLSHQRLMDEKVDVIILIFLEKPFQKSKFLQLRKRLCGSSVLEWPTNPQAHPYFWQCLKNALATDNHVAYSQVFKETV
Summary of the method: (§1)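 HEK293 cells transiently transfected with receptor expression vector plus NFκB-luciferase reporter, exposed to compound (added in 4% DMSO) for 6 hours at 37° C, 5% CO2. Luciferase activity measured by luminescence; dose-response curves from quadruplicate measurements.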

[1] = system: interferon-stimulated responsive elements (ISRE); assay: Activation of ISRE promoter elements by conditioned media from PBMC (HEK-ISREluc); type: cell-based, human; conditions: Homo sapiens; conditioned media from PBMC transferred to HEK-ISREluc cells, 24 hours; lowest effective concentration; read-out: PBMC LEC
Summary of the method: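 Human PBMCs (≥2 donors, RPMI + 10% human AB serum, 2×10^5 cells/well) incubated overnight with compound; supernatant transferred to HEK293 cells stably carrying pISRE-Luc for 24 h, then luciferase read. LEC = compound concentration on PBMCs giving luciferase signal at least two-fold above assay SD; recombinant IFN-α-2a standard.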

human TLR8 = molecular target: T2, human TLR8 (Homo sapiens, UniProt Q9NR97); assay: TLR8 cellular reporter assay (HEK293, NFκB-luc); type: cell-based; conditions: HEK293 cells transfected with CMV-TLR8 and NFκB-luc, 6 hours incubation; lowest effective concentration
T2 construct: expressed in transfected cells; host or cells: HEK293 cells, transient transfection with TLR8 plasmid and NFκB-luc plasmid
T2 sequence (Q9NR97 27-1041): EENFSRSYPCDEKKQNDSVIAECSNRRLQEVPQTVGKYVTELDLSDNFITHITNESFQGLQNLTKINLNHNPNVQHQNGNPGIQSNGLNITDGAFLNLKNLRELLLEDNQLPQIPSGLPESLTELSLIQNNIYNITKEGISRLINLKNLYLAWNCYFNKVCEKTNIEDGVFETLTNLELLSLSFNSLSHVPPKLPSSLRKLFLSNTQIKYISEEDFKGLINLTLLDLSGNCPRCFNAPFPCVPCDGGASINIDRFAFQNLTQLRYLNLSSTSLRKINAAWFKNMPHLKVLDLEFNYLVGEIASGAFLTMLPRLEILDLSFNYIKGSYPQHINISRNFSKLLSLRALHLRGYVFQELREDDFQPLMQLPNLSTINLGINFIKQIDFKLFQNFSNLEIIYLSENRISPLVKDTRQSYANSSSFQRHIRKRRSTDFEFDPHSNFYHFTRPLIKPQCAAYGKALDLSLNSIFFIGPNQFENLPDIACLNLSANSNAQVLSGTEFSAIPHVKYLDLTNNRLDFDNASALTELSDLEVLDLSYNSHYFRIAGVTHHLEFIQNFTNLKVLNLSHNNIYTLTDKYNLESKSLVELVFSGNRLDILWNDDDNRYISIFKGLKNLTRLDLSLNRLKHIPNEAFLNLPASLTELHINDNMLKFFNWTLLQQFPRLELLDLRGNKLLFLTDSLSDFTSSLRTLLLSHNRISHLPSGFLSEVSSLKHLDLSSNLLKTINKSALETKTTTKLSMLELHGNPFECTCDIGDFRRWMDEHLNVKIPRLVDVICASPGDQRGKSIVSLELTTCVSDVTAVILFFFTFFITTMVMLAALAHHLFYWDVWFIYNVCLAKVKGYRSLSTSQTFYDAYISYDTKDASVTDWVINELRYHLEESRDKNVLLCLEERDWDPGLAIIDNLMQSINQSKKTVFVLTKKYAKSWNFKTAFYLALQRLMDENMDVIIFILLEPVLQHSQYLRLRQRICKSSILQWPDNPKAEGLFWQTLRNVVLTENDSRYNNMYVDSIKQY
Summary of the method: as §1

| TLR7 LEC (human TLR7) [µM] | TLR8 LEC (human TLR8) [µM] | Compound | minimal effective concentration [1] [µM] |
| --- | --- | --- | --- |
| 0.09 | >25 | COc1ccnc(Cn2ccc3nc(N)nc(NCc4cc(C)on4)c32)c1 [Compound 167] | 0.008 |
| 0.049 | >25 | CCCCNc1nc(N)nc2ccn(Cc3cccc(CN4CCCC4)c3)c12 [Compound 116] | 0.022 |
| 0.28 | >25 | CCCCNc1nc(N)nc2ccn(Cc3cccs3)c12 [Compound 73] | 0.13 |
